From PMC9620001 (Journal of Medicinal Chemistry, 2022)
Converted amounts (≈) assume the structure as drawn. Like-named read-outs stand apart in the source and are kept apart here.

What was measured:
[1] = target: hERG channel (Homo sapiens, UniProt Q12809); experiment: hERG whole-cell patch clamp; details: highest level tested 33 μM
[2] = Measured pKa, PION UV-metric method; assay type: physicochemical
[3] = Rat pharmacokinetics; assay type: in vivo, Sprague-Dawley rats; details: male, Sprague-Dawley, plasma, iv, 1 mg/kg
[4] = Dog pharmacokinetics; assay type: in vivo, beagle dogs; details: male, beagle, plasma, iv, 1 mg/kg
[5] = target: Human PKa (Homo sapiens, UniProt P03952); experiment: biochemical; assay type: biochemical
[6] = Human plasma protein binding; assay type: in vitro ADME; details: % bound
[7] = test system: panel of CYP450 enzymes; experiment: CYP450 inhibition panel as a whole; details: up to 25 μM
[8] = test system: trypsin; details: read-out: IC50 / off target protease selectivity, trypsin
[9] = test system: bacterial mutagenicity; experiment: Non-GLP bacterial mutagenicity Ames test
[10] = target: factor Xa (Homo sapiens, UniProt P00742); details: read-out: IC50 / off target protease selectivity, FXa
[11] = target: tryptase; experiment: Protease selectivity, fluorogenic substrate cleavage assay; assay type: biochemical, human; details: read-out: IC50 / off target protease selectivity, tryptase
[12] = target: T1, factor XIIa (Homo sapiens, UniProt P00748); experiment: biochemical; details: IC50 / off target protease selectivity, FXIIa
T1 sequence (P00748 373-615 limits assumed): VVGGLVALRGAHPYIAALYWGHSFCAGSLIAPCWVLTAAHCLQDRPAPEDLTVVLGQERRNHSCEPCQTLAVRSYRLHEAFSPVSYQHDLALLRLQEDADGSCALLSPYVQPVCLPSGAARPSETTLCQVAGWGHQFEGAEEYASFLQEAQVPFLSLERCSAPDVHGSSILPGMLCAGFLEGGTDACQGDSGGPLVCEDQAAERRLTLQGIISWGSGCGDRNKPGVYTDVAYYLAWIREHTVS

[13] = target: factor XIa (Homo sapiens, UniProt P03951); experiment: biochemical; details: IC50 / off target protease selectivity, FXIa
[14] = target: tissue kallikrein (KLK1) (Homo sapiens, UniProt P06870); experiment: biochemical; details: IC50 / off target protease selectivity
[15] = target: plasmin (Homo sapiens, UniProt P00747); experiment: biochemical; details: IC50 / off target protease selectivity
[16] = Thermodynamic solubility in FaSSIF / FaSSGF; assay type: physicochemical; details: pH 6.5, solubility FaSSIF, theoretical concentration 1 mg/mL
[17] = target: thrombin (Homo sapiens, UniProt P00734); experiment: biochemical; details: IC50 / off target protease selectivity
[18] = physchem; details: aqueous buffer, kinetic from dmso stock
[19] = in vitro; details: human, Caco-2, pH 7.4
[20] = in vitro; details: human, microsomes

Chain of Human PKa (P03952 391-638 limits assumed): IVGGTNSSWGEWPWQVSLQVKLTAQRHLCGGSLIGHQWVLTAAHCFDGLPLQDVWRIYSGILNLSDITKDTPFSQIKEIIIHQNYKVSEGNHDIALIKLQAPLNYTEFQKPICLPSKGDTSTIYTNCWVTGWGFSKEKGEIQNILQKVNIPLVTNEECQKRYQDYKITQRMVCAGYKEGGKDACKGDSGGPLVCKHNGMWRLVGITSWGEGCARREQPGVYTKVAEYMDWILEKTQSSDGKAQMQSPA
Chain of Human PKa (P03952 20-390 partner limits assumed): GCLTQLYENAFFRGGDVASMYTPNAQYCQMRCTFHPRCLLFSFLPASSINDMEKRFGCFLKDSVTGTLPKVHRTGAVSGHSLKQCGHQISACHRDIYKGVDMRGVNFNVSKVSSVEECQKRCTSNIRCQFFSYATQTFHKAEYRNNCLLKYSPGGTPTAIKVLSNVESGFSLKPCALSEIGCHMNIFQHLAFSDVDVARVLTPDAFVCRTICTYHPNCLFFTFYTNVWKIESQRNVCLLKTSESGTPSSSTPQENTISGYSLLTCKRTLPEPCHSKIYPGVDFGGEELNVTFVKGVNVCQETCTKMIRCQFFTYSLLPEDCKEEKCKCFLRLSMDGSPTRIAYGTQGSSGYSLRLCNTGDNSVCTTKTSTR
Chain of tissue kallikrein (KLK1) (P06870 25-262): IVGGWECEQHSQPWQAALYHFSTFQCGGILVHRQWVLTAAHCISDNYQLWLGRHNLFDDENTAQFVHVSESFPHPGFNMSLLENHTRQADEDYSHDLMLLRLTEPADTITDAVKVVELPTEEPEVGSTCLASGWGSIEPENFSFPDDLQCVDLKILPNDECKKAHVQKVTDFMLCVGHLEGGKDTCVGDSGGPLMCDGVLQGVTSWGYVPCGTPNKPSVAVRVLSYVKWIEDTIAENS
Chain of factor XIa (P03951 388-625 limits assumed): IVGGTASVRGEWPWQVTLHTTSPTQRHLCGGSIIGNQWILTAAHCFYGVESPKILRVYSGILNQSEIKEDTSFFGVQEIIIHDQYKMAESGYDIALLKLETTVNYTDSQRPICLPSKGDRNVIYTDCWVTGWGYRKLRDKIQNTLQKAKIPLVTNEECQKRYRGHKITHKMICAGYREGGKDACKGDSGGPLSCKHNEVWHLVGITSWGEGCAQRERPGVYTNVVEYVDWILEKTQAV
Chain of factor XIa (P03951 19-387 partner limits assumed): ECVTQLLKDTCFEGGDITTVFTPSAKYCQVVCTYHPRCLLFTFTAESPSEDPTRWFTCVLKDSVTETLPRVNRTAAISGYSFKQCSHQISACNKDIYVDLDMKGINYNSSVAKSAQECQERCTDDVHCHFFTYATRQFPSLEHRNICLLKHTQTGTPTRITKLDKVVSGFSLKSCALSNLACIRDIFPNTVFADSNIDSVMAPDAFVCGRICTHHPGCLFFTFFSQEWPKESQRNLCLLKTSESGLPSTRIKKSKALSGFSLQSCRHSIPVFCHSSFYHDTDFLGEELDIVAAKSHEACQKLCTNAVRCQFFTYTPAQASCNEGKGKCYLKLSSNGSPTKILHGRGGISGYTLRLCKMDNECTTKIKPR
Chain of plasmin (P00747 581-810 limits assumed): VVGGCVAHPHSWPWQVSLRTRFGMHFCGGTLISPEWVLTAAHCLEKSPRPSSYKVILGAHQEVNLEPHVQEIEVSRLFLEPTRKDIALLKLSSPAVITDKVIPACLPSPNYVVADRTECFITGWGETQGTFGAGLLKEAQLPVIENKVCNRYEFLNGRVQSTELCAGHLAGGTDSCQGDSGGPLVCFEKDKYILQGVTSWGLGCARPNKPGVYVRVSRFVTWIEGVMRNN
Chain of plasmin (P00747 97-580 partner limits assumed): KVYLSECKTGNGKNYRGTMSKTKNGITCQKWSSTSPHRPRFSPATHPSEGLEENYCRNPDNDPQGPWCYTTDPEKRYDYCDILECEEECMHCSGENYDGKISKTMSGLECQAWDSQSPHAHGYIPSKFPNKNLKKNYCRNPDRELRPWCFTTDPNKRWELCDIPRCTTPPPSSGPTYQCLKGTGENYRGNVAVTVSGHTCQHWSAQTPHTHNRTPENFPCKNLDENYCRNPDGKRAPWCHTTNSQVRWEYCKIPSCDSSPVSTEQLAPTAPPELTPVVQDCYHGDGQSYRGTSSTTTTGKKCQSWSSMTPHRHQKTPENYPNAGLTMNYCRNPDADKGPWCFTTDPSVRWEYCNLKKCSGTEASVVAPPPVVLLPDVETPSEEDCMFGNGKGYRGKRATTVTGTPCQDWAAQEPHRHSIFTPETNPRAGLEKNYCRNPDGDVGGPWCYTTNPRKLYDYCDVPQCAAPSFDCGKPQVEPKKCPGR
Chain of hERG channel (Q12809 whole entry): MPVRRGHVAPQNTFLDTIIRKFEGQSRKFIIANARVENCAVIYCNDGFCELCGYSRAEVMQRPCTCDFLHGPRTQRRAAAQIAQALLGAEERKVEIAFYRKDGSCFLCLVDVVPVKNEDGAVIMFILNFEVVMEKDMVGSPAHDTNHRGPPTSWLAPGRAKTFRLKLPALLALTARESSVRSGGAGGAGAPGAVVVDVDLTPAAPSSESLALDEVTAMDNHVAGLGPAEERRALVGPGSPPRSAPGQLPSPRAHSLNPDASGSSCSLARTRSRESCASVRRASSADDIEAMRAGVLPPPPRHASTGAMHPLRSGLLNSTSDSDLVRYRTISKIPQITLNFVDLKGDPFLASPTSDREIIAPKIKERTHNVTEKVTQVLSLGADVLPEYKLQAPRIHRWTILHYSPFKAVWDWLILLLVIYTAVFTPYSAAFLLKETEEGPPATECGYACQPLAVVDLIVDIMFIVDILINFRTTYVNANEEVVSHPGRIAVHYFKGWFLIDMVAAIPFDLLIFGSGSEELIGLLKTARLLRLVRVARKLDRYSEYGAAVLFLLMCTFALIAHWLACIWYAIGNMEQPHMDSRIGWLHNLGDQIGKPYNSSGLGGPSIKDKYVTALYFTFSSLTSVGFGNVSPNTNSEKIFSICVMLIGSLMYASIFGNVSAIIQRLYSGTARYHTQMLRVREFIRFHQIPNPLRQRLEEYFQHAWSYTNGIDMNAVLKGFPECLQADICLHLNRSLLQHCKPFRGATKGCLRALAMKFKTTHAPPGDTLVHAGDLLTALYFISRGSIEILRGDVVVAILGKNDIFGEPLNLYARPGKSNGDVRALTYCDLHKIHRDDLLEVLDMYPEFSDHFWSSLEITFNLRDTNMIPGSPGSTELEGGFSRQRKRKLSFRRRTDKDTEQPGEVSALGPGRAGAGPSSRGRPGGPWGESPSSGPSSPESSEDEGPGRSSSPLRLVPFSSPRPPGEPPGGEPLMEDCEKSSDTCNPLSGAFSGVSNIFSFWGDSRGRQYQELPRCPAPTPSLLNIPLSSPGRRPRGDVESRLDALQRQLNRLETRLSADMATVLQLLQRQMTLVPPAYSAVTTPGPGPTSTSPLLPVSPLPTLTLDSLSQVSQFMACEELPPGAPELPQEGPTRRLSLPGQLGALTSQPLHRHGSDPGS
Chain of factor Xa (P00742 235-488 limits assumed): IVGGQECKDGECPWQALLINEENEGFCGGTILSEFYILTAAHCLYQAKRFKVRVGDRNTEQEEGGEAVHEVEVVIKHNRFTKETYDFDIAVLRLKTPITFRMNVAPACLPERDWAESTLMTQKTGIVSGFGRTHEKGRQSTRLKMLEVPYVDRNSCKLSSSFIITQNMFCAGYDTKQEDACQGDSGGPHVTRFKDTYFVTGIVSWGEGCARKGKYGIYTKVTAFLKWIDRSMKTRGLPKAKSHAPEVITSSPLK
Chain of factor Xa (P00742 41-179 partner limits assumed): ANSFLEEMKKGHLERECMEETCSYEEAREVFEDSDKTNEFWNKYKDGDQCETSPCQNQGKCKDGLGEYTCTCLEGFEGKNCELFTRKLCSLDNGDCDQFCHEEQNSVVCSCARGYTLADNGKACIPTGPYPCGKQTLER

## COCc1nn(Cc2ccc(Cn3ccccc3=O)cc2)cc1C(=O)NCc1cc(OC)ccc1F [Compound 13l, COCc1nn(cc1C(=O)NCc1cc(ccc1F)OC)Cc1ccc(cc1)CN1C=CC=CC1=O]
other
  kinetic sol 0.1 N HCl: >0.12 mg/mL
  kinetic sol aq assay buffer (pH 7.4): >0.12 mg/mL

## COCc1nn(Cc2ccc(Cn3ccccc3=O)cc2)cc1C(=O)NCc1cccc(OC)c1F [Compound 13d, COCc1nn(cc1C(=O)NCc1cccc(c1F)OC)Cc1ccc(cc1)CN1C=CC=CC1=O]
other
  kinetic sol 0.1 N HCl: >0.12 mg/mL
  kinetic sol aq assay buffer (pH 7.4): >0.12 mg/mL

## COCc1nn(Cc2ccc(Cn3ccccc3=O)cc2)cc1C(=O)NCc1nccc(OC)c1F [Compound 14w, 3-Methoxymethyl-1-[4-(2-oxo-2H-pyridin-1-ylmethyl)-benzyl]-1H-pyrazole-4-carboxylic Acid (3-Fluoro-4-methoxy-pyridin-2-ylmethyl)-amide]
[1]
  inhibition of hERG channel (in words): no significant inhibition
[2]
  pKa: 3.6
[3]
  clearance at 24 h: 11.7 mL/min/kg
[4]
  clearance at 24 h: 8.7 mL/min/kg
[5]
  kinetics (in words): fast kinetics
[6]
  human plasma protein binding (PPB): 77%
[7]
  CYP450 panel profile (in words): clean profiles up to the highest concentration tested
[8]
  IC50: > 10 µM
[8]; listed as Sebetralstat
  IC50: > 40 µM
[9]
  Non-GLP Ames: no risk of genotoxicity
[10]
  IC50: > 10 µM
[11]
  IC50: > 10 µM

## COCc1nn(Cc2ccc(Cn3ccccc3=O)cc2)cc1C(=O)NCc1nccc(OC)c1C [Compound 14s, COCc1nn(cc1C(=O)NCc1nccc(c1C)OC)Cc1ccc(cc1)CN1C=CC=CC1=O]
[3]
  clearance at 24 h: 14 mL/min/kg
[12]
  IC50: > 10 µM
[13]
  IC50: > 10 µM
[14]
  IC50: > 10 µM
[15]
  IC50: > 10 µM
[16]
  solubility at 4 h: > 100 µg/mL
[17]
  IC50: 7.5 µM

## COc1cccc(CNC(=O)c2cn(Cc3ccc(Cn4ccccc4=O)cc3)nc2C2CC2)c1F [Compound 13f, COc1cccc(c1F)CNC(=O)c1cn(nc1C1CC1)Cc1ccc(cc1)CN1C=CC=CC1=O]
other
  kinetic sol 0.1 N HCl: >0.11 mg/mL
  kinetic sol aq assay buffer (pH 7.4): 0.058–0.11 mg/mL
[5]; lipophilic ligand efficiency
  LLE: 4.4

## COc1ccnc(CNC(=O)c2cn(Cc3ccc(Cn4ccccc4=O)cc3)nc2C(F)(F)F)c1F [Compound 16, COc1ccnc(c1F)CNC(=O)c1cn(nc1C(F)(F)F)Cc1ccc(cc1)CN1C=CC=CC1=O]
[3]
  clearance at 24 h: 7.1 mL/min/kg
[12]
  IC50: > 10 µM
[4]
  clearance at 24 h: 10 mL/min/kg
[5]
  kinetics (in words): fast kinetics
[6]
  human plasma protein binding (PPB): 87%
[13]
  IC50: > 10 µM
[7]
  CYP450 panel profile (in words): clean profiles up to the highest concentration tested
[8]
  IC50: > 10 µM
[14]
  IC50: > 10 µM
[15]
  IC50: > 10 µM
[17]
  IC50: > 10 µM

## COCc1nn(Cc2ccc(Cn3ccccc3=O)cc2)cc1C(=O)NCc1c(C#N)ccc(OC)c1F [Compound 13k, COCc1nn(cc1C(=O)NCc1c(c(ccc1C#N)OC)F)Cc1ccc(cc1)CN1C=CC=CC1=O]
[3]
  clearance at 24 h: 16 mL/min/kg
other
  kinetic sol 0.1 N HCl: >0.12 mg/mL
  kinetic sol aq assay buffer (pH 7.4): >0.12 mg/mL

## COc1cccc(CNC(=O)c2cn(Cc3ccc(Cn4ccccc4=O)cc3)nc2N(C)C)c1F [Compound 13e, COc1cccc(c1F)CNC(=O)c1cn(nc1N(C)C)Cc1ccc(cc1)CN1C=CC=CC1=O]
other
  kinetic sol 0.1 N HCl: >0.12 mg/mL
  kinetic sol aq assay buffer (pH 7.4): >0.12 mg/mL

## COCc1nn(Cc2ccc(Cn3ccccc3=O)cc2)cc1C(=O)NCc1c(Cl)ccc(OC)c1F [Compound 13j, COCc1nn(cc1C(=O)NCc1c(ccc(c1F)OC)Cl)Cc1ccc(cc1)CN1C=CC=CC1=O]
other
  kinetic sol 0.1 N HCl: >0.12 mg/mL
  kinetic sol aq assay buffer (pH 7.4): >0.12 mg/mL

## COCc1nn(Cc2ccc(Cn3ccccc3=O)cc2)cc1C(=O)NCc1cccc(O)c1F [Compound 13g, COCc1nn(cc1C(=O)NCc1cccc(c1F)O)Cc1ccc(cc1)CN1C=CC=CC1=O]
other
  kinetic sol 0.1 N HCl: >0.12 mg/mL
  kinetic sol aq assay buffer (pH 7.4): >0.12 mg/mL

## COCc1nn(Cc2ccc(Cn3ccccc3=O)cc2)cc1C(=O)NCc1c(F)ccc(OC)c1F [Compound 13b, COCc1nn(cc1C(=O)NCc1c(ccc(c1F)OC)F)Cc1ccc(cc1)CN1C=CC=CC1=O]
[3]
  clearance at 24 h: 12.8 mL/min/kg
other
  kinetic sol 0.1 N HCl: >0.12 mg/mL
  kinetic sol aq assay buffer (pH 7.4): >0.12 mg/mL
[4]
  clearance at 24 h: 11.5 mL/min/kg
[5]
  kinetics (in words): fast kinetics
[5]; lipophilic ligand efficiency
  LLE: 5.4

## CCc1cccc(CNC(=O)c2cn(Cc3ccc(Cn4ccccc4=O)cc3)nc2COC)c1F [Compound 13h, CCc1cccc(c1F)CNC(=O)c1cn(nc1COC)Cc1ccc(cc1)CN1C=CC=CC1=O]
[18]
  solubility kinetic: 29 to 59 µg/mL (≈ 59.4 to 121 µM)
other
  kinetic sol aq assay buffer (pH 7.4): >0.12 mg/mL
[5]
  LLE: 3.7

## COCc1nn(Cc2ccc(Cn3ccccc3=O)cc2)cc1C(=O)NCc1cccc(OC(F)F)c1F [Compound 13i, COCc1nn(cc1C(=O)NCc1cccc(c1F)OC(F)F)Cc1ccc(cc1)CN1C=CC=CC1=O]
[18]
  solubility kinetic: 63 to 120 µg/mL (≈ 120 to 228 µM)
other
  kinetic sol aq assay buffer (pH 7.4): >0.12 mg/mL
[5]
  IC50: 0.15 µM
[5]; lipophilic ligand efficiency
  LLE: 4.2

## Nc1nccc2cc(CNC(=O)c3cnn(Cc4ccc(Cn5ccccc5=O)cc4)c3)ccc12 [Compound 6, Nc1nccc2cc(ccc12)CNC(=O)c1cnn(c1)Cc1ccc(cc1)CN1C=CC=CC1=O]
[19]
  Papp A→B: 2 ×10⁻⁶ cm/s
[20]
  microsomal CLint: 37 µL/min/mg
